Assay results as given in ChEMBL document CHEMBL4052759, “Discovery of DS79182026: A potent orally active hepcidin production inhibitor” (Bioorg Med Chem Lett, 2017).

Legend:
[1] = target: Ribosomal protein S6 kinase alpha-5 (Homo sapiens) (UniProt O75582); test: Inhibition of MSK1 (unknown origin) at 0.078 uM relative to control
[2] = target: T1, Serine/threonine-protein kinase Sgk1 (Homo sapiens) (UniProt O00141); test: Inhibition of SGK1 (unknown origin) at 0.078 uM relative to control
T1 sequence (whole entry): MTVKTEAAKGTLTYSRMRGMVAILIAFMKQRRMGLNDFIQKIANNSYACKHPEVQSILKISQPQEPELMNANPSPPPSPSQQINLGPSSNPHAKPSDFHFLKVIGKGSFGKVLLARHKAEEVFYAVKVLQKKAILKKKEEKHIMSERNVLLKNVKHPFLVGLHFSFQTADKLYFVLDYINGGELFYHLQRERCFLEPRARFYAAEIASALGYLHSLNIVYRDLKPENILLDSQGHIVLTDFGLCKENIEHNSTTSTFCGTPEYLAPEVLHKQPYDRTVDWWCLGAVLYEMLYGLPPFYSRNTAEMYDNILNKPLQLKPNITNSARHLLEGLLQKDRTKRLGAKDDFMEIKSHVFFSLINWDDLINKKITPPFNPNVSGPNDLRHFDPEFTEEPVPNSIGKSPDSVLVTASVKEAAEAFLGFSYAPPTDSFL

[3] = target: T2, Calcium/calmodulin-dependent protein kinase type IV (Homo sapiens) (UniProt Q16566); test: Inhibition of CAMK4 (unknown origin) at 0.078 uM relative to control
T2 sequence (whole entry): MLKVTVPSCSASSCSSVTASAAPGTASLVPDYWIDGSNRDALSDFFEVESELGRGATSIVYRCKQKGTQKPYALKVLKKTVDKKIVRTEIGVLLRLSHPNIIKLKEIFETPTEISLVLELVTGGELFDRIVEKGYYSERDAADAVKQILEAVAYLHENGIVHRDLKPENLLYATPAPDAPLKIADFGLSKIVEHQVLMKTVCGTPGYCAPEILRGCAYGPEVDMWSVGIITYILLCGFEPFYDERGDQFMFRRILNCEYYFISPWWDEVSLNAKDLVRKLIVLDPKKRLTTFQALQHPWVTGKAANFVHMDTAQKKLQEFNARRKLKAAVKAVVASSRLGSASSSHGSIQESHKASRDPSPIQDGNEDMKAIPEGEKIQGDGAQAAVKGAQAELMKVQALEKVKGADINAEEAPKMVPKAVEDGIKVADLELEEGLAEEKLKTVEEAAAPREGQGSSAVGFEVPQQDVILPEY

[4] = target: Hepatocyte growth factor receptor (Homo sapiens) (UniProt P08581); test: Inhibition of MET (unknown origin) at 0.078 uM relative to control
Hepatocyte growth factor receptor (Homo sapiens), sequence (P08581 whole entry): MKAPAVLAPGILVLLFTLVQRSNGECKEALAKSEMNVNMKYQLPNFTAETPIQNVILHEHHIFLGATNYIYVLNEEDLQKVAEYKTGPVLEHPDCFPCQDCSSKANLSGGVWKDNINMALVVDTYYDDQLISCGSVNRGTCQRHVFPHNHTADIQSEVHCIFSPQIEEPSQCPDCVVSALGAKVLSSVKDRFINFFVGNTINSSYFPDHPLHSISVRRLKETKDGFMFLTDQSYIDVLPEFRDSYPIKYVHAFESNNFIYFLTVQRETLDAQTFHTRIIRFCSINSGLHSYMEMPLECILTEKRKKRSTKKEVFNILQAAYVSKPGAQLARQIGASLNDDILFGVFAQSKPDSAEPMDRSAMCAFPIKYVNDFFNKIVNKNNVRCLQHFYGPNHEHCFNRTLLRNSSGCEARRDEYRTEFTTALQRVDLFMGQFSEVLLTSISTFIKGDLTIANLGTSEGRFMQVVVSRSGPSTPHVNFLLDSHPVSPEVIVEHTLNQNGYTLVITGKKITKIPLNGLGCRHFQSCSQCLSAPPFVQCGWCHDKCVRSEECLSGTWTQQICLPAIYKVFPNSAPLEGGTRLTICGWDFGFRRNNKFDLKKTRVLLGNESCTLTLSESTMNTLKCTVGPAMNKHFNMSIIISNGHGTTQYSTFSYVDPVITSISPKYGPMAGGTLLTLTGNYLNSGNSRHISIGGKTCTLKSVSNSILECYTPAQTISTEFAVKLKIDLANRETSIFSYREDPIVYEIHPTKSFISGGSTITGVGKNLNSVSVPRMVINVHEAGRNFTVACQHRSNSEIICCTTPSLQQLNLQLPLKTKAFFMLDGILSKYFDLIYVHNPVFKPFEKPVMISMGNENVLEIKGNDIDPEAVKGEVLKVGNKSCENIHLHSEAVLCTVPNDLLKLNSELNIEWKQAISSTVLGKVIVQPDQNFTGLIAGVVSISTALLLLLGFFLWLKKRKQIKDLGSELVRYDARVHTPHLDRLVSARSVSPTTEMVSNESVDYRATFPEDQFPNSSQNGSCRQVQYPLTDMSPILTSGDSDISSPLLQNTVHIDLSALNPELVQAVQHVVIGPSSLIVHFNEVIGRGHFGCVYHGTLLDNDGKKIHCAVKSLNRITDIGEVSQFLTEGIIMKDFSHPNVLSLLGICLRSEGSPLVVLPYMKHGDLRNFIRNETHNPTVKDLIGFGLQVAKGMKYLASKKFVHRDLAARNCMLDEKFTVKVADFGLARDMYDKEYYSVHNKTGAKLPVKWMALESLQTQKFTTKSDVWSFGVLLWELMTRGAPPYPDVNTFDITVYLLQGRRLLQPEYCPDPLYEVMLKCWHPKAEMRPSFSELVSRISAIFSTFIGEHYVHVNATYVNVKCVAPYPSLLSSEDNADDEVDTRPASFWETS

[5] = target: Testis-specific serine/threonine-protein kinase 2 (Homo sapiens) (UniProt Q96PF2); test: Inhibition of TSSK2 (unknown origin) at 0.49 uM relative to control
[6] = target: Casein kinase I isoform alpha (Homo sapiens) (UniProt P48729); test: Inhibition of CSNK1A1 (unknown origin) at 0.49 uM relative to control
[7] = target: Protein kinase C eta type (Homo sapiens) (UniProt P24723); test: Inhibition of PKC-eta (unknown origin) at 0.49 uM relative to control
[8] = target: CDK6/cyclin D3 (Homo sapiens) (UniProt P30281+Q00534); test: Inhibition of CDK6/CyclinD3 (unknown origin) at 0.49 uM relative to control; assay type: protein-complex assay
[9] = target: Mitogen-activated protein kinase 3 (Homo sapiens) (UniProt P27361); test: Inhibition of Erk1 (unknown origin) at 0.49 uM relative to control
[10] = target: Fibroblast growth factor receptor 1 (Homo sapiens) (UniProt P11362); test: Inhibition of FGFR1 (unknown origin) at 0.49 uM relative to control
[11] = target: Fibroblast growth factor receptor 4 (Homo sapiens) (UniProt P22455); test: Inhibition of FGFR4 (unknown origin) at 0.49 uM relative to control
[12] = target: Mitogen-activated protein kinase kinase kinase kinase 4 (Homo sapiens) (UniProt O95819); test: Inhibition of HGK (unknown origin) at 0.49 uM relative to control
[13] = tested on: Tyrosine-protein kinase ABL1 (Homo sapiens), P00519 [H396P]; test: Inhibition of Abl H396P mutant (unknown origin) at 0.49 uM relative to control
[14] = target: Platelet-derived growth factor receptor alpha (Homo sapiens) (UniProt P16234); test: Inhibition of PDGFR alpha (unknown origin) at 0.49 uM relative to control
Platelet-derived growth factor receptor alpha (Homo sapiens), sequence (P16234 whole entry): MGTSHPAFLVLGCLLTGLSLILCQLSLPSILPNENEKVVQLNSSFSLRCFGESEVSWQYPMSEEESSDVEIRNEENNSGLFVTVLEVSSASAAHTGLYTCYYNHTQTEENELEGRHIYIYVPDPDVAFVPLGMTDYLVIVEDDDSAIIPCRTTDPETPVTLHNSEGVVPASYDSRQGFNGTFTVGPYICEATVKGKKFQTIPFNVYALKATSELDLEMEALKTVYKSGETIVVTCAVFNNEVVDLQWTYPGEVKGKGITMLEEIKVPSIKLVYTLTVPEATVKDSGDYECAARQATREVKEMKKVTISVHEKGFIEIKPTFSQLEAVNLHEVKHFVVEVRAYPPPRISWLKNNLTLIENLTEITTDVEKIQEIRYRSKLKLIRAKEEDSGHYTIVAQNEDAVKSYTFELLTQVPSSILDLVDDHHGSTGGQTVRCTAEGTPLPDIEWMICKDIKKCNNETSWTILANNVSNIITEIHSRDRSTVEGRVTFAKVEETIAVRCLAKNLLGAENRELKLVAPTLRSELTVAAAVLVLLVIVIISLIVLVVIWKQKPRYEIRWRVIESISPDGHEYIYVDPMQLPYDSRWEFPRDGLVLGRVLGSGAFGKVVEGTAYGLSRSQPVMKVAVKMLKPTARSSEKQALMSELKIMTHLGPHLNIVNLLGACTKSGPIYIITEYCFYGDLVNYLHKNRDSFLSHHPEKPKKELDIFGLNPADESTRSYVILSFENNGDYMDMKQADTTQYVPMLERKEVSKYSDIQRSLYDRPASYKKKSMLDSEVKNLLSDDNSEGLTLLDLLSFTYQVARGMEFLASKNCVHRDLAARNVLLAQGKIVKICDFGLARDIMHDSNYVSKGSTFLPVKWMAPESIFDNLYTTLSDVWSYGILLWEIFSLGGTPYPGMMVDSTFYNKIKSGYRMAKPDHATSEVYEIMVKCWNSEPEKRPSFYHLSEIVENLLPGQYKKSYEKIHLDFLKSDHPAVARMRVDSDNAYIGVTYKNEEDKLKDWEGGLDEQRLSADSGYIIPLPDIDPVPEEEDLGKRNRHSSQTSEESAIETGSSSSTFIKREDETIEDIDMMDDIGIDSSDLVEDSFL

[15] = target: Protein kinase C iota type (Homo sapiens) (UniProt P41743); test: Inhibition of PKC-iota (unknown origin) at 0.45 uM relative to control
Protein kinase C iota type (Homo sapiens), sequence (P41743 whole entry): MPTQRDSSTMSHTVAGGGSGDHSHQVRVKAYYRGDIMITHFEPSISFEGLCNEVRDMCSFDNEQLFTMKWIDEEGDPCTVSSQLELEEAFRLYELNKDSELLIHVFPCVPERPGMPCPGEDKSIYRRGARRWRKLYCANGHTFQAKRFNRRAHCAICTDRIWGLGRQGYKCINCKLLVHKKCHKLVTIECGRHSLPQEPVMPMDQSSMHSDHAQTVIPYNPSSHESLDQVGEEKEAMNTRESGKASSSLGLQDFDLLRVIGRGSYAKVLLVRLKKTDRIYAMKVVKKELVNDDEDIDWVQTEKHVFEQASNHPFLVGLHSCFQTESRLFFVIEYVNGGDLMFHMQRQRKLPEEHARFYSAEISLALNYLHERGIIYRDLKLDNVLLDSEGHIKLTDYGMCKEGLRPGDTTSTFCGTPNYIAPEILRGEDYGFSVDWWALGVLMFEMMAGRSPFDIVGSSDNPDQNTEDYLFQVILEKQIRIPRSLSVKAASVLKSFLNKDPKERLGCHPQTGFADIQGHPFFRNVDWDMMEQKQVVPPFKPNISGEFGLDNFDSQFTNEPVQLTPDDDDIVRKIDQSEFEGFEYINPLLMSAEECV

[16] = target: Ribosomal protein S6 kinase alpha-3 (Homo sapiens) (UniProt P51812); test: Inhibition of RSK2 (unknown origin) at 0.45 uM relative to control
[17] = target: Serine/threonine-protein kinase Sgk3 (Homo sapiens) (UniProt Q96BR1); test: Inhibition of SGK3 (unknown origin) at 0.45 uM relative to control
Serine/threonine-protein kinase Sgk3 (Homo sapiens), sequence (Q96BR1 whole entry): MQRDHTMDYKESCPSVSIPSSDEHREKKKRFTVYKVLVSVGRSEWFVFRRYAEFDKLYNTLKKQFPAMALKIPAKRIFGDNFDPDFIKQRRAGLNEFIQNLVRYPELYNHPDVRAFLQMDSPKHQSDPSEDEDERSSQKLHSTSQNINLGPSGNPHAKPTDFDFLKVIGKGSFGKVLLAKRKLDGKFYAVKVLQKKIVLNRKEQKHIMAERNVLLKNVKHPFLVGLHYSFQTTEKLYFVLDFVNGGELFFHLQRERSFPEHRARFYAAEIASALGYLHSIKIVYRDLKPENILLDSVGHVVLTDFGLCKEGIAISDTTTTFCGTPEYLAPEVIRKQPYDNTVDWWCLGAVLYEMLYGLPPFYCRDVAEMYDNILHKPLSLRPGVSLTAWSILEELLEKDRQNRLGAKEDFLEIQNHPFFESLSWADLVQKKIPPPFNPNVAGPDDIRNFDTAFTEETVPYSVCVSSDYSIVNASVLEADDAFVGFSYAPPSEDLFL

[18] = target: Serine/threonine-protein kinase Nek9 (Homo sapiens) (UniProt Q8TD19); test: Inhibition of NEK9 (unknown origin) at 0.45 uM relative to control
[19] = target: Dual specificity tyrosine-phosphorylation-regulated kinase 4 (Homo sapiens) (UniProt Q9NR20); test: Inhibition of DYRK4 (unknown origin) at 0.45 uM relative to control
[20] = target: Serine/threonine-protein kinase PAK 2 (Homo sapiens) (UniProt Q13177); test: Inhibition of PAK2 (unknown origin) at 0.45 uM relative to control
[21] = target: Serine/threonine-protein kinase PAK 3 (Homo sapiens) (UniProt O75914); test: Inhibition of PAK3 (unknown origin) at 0.45 uM relative to control
Serine/threonine-protein kinase PAK 3 (Homo sapiens), sequence (O75914 whole entry, looked up): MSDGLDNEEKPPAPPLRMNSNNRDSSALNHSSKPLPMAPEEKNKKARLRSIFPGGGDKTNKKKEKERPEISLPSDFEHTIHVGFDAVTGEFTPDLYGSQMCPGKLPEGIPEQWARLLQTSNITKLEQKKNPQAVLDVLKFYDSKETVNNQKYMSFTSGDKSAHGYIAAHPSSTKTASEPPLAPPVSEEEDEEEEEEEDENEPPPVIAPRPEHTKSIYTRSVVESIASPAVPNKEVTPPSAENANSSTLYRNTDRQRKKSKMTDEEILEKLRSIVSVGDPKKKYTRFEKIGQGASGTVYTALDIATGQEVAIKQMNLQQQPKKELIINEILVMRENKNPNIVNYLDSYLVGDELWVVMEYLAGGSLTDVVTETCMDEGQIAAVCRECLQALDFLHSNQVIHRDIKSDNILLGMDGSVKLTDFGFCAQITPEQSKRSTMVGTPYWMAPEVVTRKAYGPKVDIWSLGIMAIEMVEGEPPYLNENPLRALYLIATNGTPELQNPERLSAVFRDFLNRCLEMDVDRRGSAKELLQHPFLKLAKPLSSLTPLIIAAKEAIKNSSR

[22] = target: Serine/threonine-protein kinase MARK2 (Homo sapiens) (UniProt Q7KZI7); test: Inhibition of MARK2 (unknown origin) at 0.45 uM relative to control
[23] = target: Phosphorylase b kinase gamma catalytic chain, liver/testis isoform (Homo sapiens) (UniProt P15735); test: Inhibition of PhKg2 (unknown origin) at 0.45 uM relative to control
[24] = tested on: Tyrosine-protein kinase ABL1 (Homo sapiens), P00519 [G250E]; test: Inhibition of ABL1 G250E mutant (unknown origin) at 0.45 uM relative to control
[25] = tested on: Tyrosine-protein kinase ABL1 (Homo sapiens), P00519 [Y253F]; test: Inhibition of ABL1 Y253F mutant (unknown origin) at 0.45 uM relative to control
[26] = target: RAF proto-oncogene serine/threonine-protein kinase (Homo sapiens) (UniProt P04049); test: Inhibition of c-Raf (unknown origin) at 0.45 uM relative to control
[27] = target: Serine/threonine-protein kinase D1 (Homo sapiens) (UniProt Q15139); test: Inhibition of PKD1 (unknown origin) at 0.45 uM relative to control
Serine/threonine-protein kinase D1 (Homo sapiens), sequence (Q15139 whole entry, looked up): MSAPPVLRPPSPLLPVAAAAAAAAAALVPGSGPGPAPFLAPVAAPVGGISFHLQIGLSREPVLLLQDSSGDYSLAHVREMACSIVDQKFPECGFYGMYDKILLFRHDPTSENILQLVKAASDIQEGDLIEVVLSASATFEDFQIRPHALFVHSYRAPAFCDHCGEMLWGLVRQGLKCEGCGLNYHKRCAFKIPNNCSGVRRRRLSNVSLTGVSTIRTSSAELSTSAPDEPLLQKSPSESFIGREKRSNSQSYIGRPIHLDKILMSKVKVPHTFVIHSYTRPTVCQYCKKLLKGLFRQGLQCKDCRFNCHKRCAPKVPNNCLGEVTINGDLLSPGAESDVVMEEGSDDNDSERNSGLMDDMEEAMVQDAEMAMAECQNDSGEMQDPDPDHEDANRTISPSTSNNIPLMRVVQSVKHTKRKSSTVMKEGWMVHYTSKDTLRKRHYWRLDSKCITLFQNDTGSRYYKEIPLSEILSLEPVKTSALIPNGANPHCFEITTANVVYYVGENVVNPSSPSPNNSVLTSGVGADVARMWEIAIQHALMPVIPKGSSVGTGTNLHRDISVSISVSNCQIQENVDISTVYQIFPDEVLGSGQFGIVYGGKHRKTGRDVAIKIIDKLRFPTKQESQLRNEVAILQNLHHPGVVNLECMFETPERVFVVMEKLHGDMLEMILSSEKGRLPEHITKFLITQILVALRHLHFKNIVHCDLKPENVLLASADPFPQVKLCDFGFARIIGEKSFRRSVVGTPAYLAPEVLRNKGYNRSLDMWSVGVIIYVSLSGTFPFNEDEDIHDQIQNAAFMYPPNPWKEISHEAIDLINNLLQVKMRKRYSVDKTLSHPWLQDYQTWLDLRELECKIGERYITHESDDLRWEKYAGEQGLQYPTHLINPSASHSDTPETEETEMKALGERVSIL

## COC(=O)Nc1noc2cc(-c3c(-c4ccccn4)n[nH]c3C)ccc12
[1]
  inhibition: -5.7%
[2]
  inhibition: -10%
[3]
  inhibition: 6.7%
[4]
  inhibition: 1%

## Cc1[nH]nc(C2CC2)c1-c1ccc2c(NC(=O)C3CC3)noc2c1
[5]
  inhibition: 2%
[6]
  inhibition: 1.7%
[7]
  inhibition: 7%
[8]
  inhibition: 1.7%
[9]
  inhibition: 3.7%
[10]
  inhibition: 0.7%
[11]
  inhibition: 0.3%
[12]
  inhibition: 4%
[13]
  inhibition: 36.7%
[14]
  inhibition: 0.7%

## Cc1n[nH]c(C)c1-c1ccc2c(NC(=O)c3ccc(N4CCN(C)CC4)cc3)n[nH]c2c1
[15]
  inhibition: -6.7%
[16]
  inhibition: 36%
[17]
  inhibition: 3.3%
[18]
  inhibition: 1.7%
[19]
  inhibition: 2.7%
[20]
  inhibition: -2.7%
[21]
  inhibition: 3.7%
[22]
  inhibition: 35%
[23]
  inhibition: 1.7%
[24]
  inhibition: 68%
[25]
  inhibition: 76%
[26]
  inhibition: 7%
[27]
  inhibition: 1.3%
